The values that follow come from publication PMC3050082 (Journal of medicinal chemistry, 2010).

Like-named read-outs stand apart in the source and are kept apart here.

For orientation: EC50 means the concentration that produces a half-maximal response. As a reminder, the CC50 is the concentration that lowers cell viability or growth by half.

One data set relates to HIV-1 A17 (K103N/Y181C). Put plainly: Multi-RTI-resistant HIV-1 A17 replication in MT-2 cells. In kind it is cell-based. To be noted: Human immunodeficiency virus 1, MT2.
For a further data set, the system named is HIV-1 RTMDR. Put plainly: Multi-RTI-resistant HIV-1 RTMDR infection in TZM-bl cell line. In kind it is cell-based. The following applies: Human immunodeficiency virus 1, TZM-bl.
The test system of a further data set is TZM-bl cell line. The following applies: cited from earlier work.
In data set [1] the test system is HIV-1 NL4-3. The following applies: NL4-3 in TZM-bl cell line; starred compounds, data were reported in ref [11]; cited from earlier work.
A further data set has as its system MT-2 cells. The following applies: cited from earlier work.
The subject of data set [2] is HIV-1 IIIB. The following applies: cited from earlier work.
Data set [3] has as its system HIV-1 NL4-3. Description: microbe, parasite or virus in culture. To be noted: for EC50: Human immunodeficiency virus 1, NL43, TZM-bl. In kind it is cell-based.
Data set [4] concerns HIV-1 IIIB. Put plainly: Inhibition of HIV-1 IIIB replication in MT-2 cells. Type of data set: cell-based. The following applies: Human immunodeficiency virus 1, IIIB.
The mark [5] stands for this setting: TZM-bl cell line, XTT assay, starred compounds, data were reported in ref [11].
Where [6] appears, read: MT-2 cell line, XTT assay, starred compounds, data were reported in ref [11].
[7] abbreviates: IIIB in MT-2 cell line, starred compounds, data were reported in ref [11].

Regarding `Cc1cc(/C=C/C#N)cc(C)c1Oc1ccc(N)c(Nc2ccc(C#N)cc2)n1` [13m, (E)-N^2-(4′-Cyanophenyl)-6-(4″-cyanovinyl-2″,6″-dimethyl)phenoxypyridin-2,3-diamine], the results for the concentration giving a half-maximal response (EC50) in the data set with HIV-1 A17 (K103N/Y181C) and in the data set on HIV-1 RTMDR were 200 ± 10 nM and 0.59 ± 0.09 nM, respectively.

In turn, `C=CCc1cc(C)c(Oc2ccc(N)c(Nc3ccc(C#N)cc3)n2)c(C)c1` [13c, 6-(4″-Allyl-2″,6″-dimethyl)phenoxy-N^2-(4′-cyanophenyl)pyridin-2,3-diamine] returned a 50% effective concentration (EC50) in the data set with HIV-1 RTMDR of 15.4 ± 1.6 nM.

For the compound `Cc1cc(I)cc(C)c1Oc1ccc([N+](=O)[O-])c(Nc2ccc(C#N)cc2)n1` [11a, N^2-(4′-Cyanophenyl)-6-(2″,6″-dimethyl-4″-iodo)phenoxy-3-nitropyridin-2-amine], the figures for the CC50 in the data set on TZM-bl cell line (setting [5]) and in the data set on MT-2 cells (setting [6]) were over 41200 nM and 22900 nM, respectively. Besides, the 50% effective concentration (EC50) was 60.7 ± 24 nM in the data set with HIV-1 NL4-3 [1], 94.3 ± 9 nM in the data set on HIV-1 RTMDR and 79 ± 2 nM in the data set on HIV-1 IIIB [2] (setting [7]). In addition, the “SI (selective index = CC50/EC50)” value in the data set with HIV-1 NL4-3 [1] is over 675; in the data set on HIV-1 IIIB [2] (setting [7]), 283.

On to `Cc1cc(/C=C/C#N)cc(C)c1Oc1ccc([N+](=O)[O-])c(Nc2ccc(C#N)cc2)n1` [11m, (E)-N-(4′-Cyanophenyl)-6-(4″-cyanovinyl-2″,6″-dimethyl)phenoxy-3-nitropyridin-2-amine], for which, in the data set on HIV-1 RTMDR, the response was half-maximal at 14.8 ± 2.4 nM (EC50).

For the compound `N#Cc1ccc(Nc2cc([N+](=O)[O-])c(Oc3ccc4cc(C#N)ccc4c3Br)cc2N)cc1` [compound 20, 4-(1-Bromo-6-cyano-2-naphthoxy)-N^1-(4′-cyanophenyl)-5-nitrobenzene-1,2-diamine], the EC50 in the data set on HIV-1 NL4-3 [3] (NL4-3 in TZM-bl cell line) was over 100 nM; in the data set with HIV-1 IIIB [4] (MT2, IIIB in MT-2 cell line) it was over 100 nM.

As to `N#Cc1ccc(Nc2cc(Oc3ccc4cc(C#N)ccc4c3)c([N+](=O)[O-])cc2[N+](=O)[O-])cc1` [compound 17, 5-(6-Cyano-2-naphthoxy)-N^1-(4′-cyanophenyl)-2,4-dinitroaniline], the EC50 in the data set on HIV-1 NL4-3 [3] and with HIV-1 IIIB [4] (MT2) was over 100 nM throughout.

As to `Cc1cc(C#N)cc(C)c1Oc1ccc(N)c(Nc2ccc(C#N)cc2)n1` [compound 3, reference compound], the EC50 with HIV-1 NL4-3 [3] (NL4-3 in TZM-bl cell line) was found to be 0.68 ± 0.03 nM; with HIV-1 RTMDR it was 0.96 ± 0.3 nM.

For `C#Cc1cc(C)c(Oc2ccc([N+](=O)[O-])c(Nc3ccc(C#N)cc3)n2)c(C)c1` [11f, N^2-(4′-Cyanophenyl)-6-(2″,6″-dimethyl-4″-ethynyl)phenoxy-3-nitropyridin-2-amine], the half-maximal cytotoxic concentration (CC50) in the data set with TZM-bl cell line (setting [5]) is over 52100 nM; with MT-2 cells (setting [6]) it was over 100000 nM. In addition, the results for the EC50 in the data set on HIV-1 NL4-3 [1], in the data set with HIV-1 RTMDR and in the data set on HIV-1 IIIB [2] (setting [7]) were 111 ± 86 nM, 215 ± 33 nM and 247 ± 40 nM, respectively. Also, the “SI (selective index = CC50/EC50)” value in the data set with HIV-1 NL4-3 [1] is over 469; in the data set with HIV-1 IIIB [2] (setting [7]) it was over 405.

With `Cc1cc(C#CC2CC2)cc(C)c1Oc1ccc([N+](=O)[O-])c(Nc2ccc(C#N)cc2)n1` [11e, N-(4′-Cyanophenyl)-6-[4″-(2-cyclopropylethynyl)-2″,6″-dimethyl]phenoxy-3-nitro-pyridin-2-amine], the EC50 in the data set on HIV-1 IIIB [4] (MT2, IIIB in MT-2 cell line) is over 3000 nM.

With `Cc1cc(C#CC(C)(C)O)cc(C)c1Oc1ccc(N)c(Nc2ccc(C#N)cc2)n1` [13d, N^2-(4′-Cyanophenyl)-6-[2″,6″-dimethyl-4″-(3-methylbut-3-ol-1-yn)phenoxy]pyridin-2,3-di amine], the cytotoxic concentration (CC50) with TZM-bl cell line was 8730 nM; with MT-2 cells, 3540 nM. Also, the EC50 is 241 ± 14.7 nM in the data set on HIV-1 NL4-3 [1] and 1580 ± 97 nM in the data set on HIV-1 IIIB [2] (setting [7]). In addition, the “SI (selective index = CC50/EC50)” value with HIV-1 NL4-3 [1] is listed as 36; in the data set with HIV-1 IIIB [2], 2.25.

In the case of `N#Cc1ccc(Nc2cc(Oc3ccc4cc(C#N)ccc4c3)c([N+](=O)[O-])cc2N)cc1` [compound 19, 4-(6-Cyano-2-naphthoxy)-N^2-(4′-cyanophenyl)-5-nitrobenzene-1,2-diamine], the EC50 in the data set with HIV-1 NL4-3 [3] (NL4-3 in TZM-bl cell line) is over 100 nM; in the data set with HIV-1 IIIB [4] (MT2, IIIB in MT-2 cell line), over 100 nM.

Take `Cc1cc(I)cc(C)c1Oc1ccc(N)c(Nc2ccc(C#N)cc2)n1` [13a, N^2-(4′-Cyanophenyl)-6-(2″,6″-dimethyl-4″-iodo)phenoxypyridin-2,3-diamine]: the 50% cytotoxic concentration (CC50) in the data set on TZM-bl cell line (setting [5]) is 16700 nM; in the data set on MT-2 cells (setting [6]), 7240 nM. For the same compound, the figures for the EC50 in the data set on HIV-1 NL4-3 [1], in the data set with HIV-1 RTMDR and in the data set on HIV-1 IIIB [2] (setting [7]) were 7.6 ± 2.3 nM, 5.13 ± 1.15 nM and 54 ± 4 nM, respectively. The “SI (selective index = CC50/EC50)” value in the data set with HIV-1 NL4-3 [1] was 2200; in the data set on HIV-1 IIIB [2] (setting [7]), 134.

Take `Cc1cc(C#CC2CC2)cc(C)c1Oc1ccc(N)c(Nc2ccc(C#N)cc2)n1` [13e, N^2-(4′-Cyanophenyl)-6-[4″-(2-cyclopropylethynyl)-2″,6″-dimethylphenoxy]pyridin-2,3-diamine]: the concentration giving a half-maximal response (EC50) in the data set on HIV-1 A17 (K103N/Y181C) is over 10000 nM; with HIV-1 RTMDR, 121 ± 17.7 nM.

Regarding `CC(=O)CCc1cc(C)c(Oc2ccc(N)c(Nc3ccc(C#N)cc3)n2)c(C)c1` [13k, 6-[(4″-Butan-2-one)-2″,6″-dimethyl]phenoxy-N^2-(4′-cyanophenyl)pyridin-2,3-diamine], the values for the EC50 with HIV-1 A17 (K103N/Y181C) and in the data set with HIV-1 RTMDR were 730 ± 58 nM and 3.2 ± 0.8 nM, respectively.

`Cc1cc(/C=C/C#N)cc(C)c1Oc1ccc([N+](=O)[O-])c(Nc2ccc(C#N)cc2)c1` [12c, (E)-N^2-(4′-Cyanophenyl)-4-(4″-cyanovinyl-2″,6″-dimethyl)phenoxy-1-nitroaniline]: the selectivity ratio in the data set on HIV-1 NL4-3 [3] (human) is over 4690.

`C#Cc1cc(C)c(Oc2ccc(N)c(Nc3ccc(C#N)cc3)n2)c(C)c1` [13f, N^2-(4′-Cyanophenyl)-6-(2″,6″-dimethyl-4″-ethynyl)phenoxypyridin-2,3-diamine]: the figures for the CC50 with TZM-bl cell line (setting [5]) and in the data set with MT-2 cells (setting [6]) were 9940 nM and 9280 nM, respectively. Further, the EC50 with HIV-1 NL4-3 [1] was 6.7 ± 1 nM; with HIV-1 A17 (K103N/Y181C), 1430 ± 260 nM; with HIV-1 RTMDR, 9 ± 2 nM. The “SI (selective index = CC50/EC50)” value is 1484 in the data set on HIV-1 NL4-3 [1] and 221 in the data set with HIV-1 IIIB [2] (setting [7]).

With `Cc1cc(C#CC(C)(C)O)cc(C)c1Oc1ccc([N+](=O)[O-])c(Nc2ccc(C#N)cc2)n1` [11d, N-(4′-Cyanophenyl)-6-[2″,6″-dimethyl-4″-(3-methylbut-3-ol-1-yn)phenoxy]-3-nitropyridin-2-amine], the cytotoxic concentration (CC50) in the data set on TZM-bl cell line is 45200 nM; in the data set with MT-2 cells, 23300 nM. The “SI (selective index = CC50/EC50)” value is listed as 1.09 in the data set with HIV-1 NL4-3 [1] and 2.61 with HIV-1 IIIB [2].
